What was measured:
[1] = compared with H2; stated as known; cited from earlier work
[2] = system: injured nerve cells of the spinal cord / spinal cord-injured animal model; settings: high-concentration hydrogen of, for example, 50% or more; X. Chen 2018, C. Chen 2010; cited from earlier work
[3] = normal temperature and normal pressure; also printed as 1.6 mg/L; cited from earlier work
[4] = system: symptoms of cervical spine/cervical cord injury
Description: They restored consciousness about a week after the accident.
Immediately before inhalation of hydrogen gas 6 years after the accident, they went to work in the afternoon 4 or 5 days a week, and stayed at home throughout a day when they felt ill. Further, they occasionally saw a doctor of psychiatry.
About 6 years after the accident, the patient underwent inhalation of hydrogen (hydrogen inhalation equipment: MHG-2000a Type, hydrogen concentration: 6 to 7.5%, hydrogen gas production rate: 140 mL/min, MiZ Company Limited (Kanagawa, Japan) over a period from Oct. 4, 2018 to May 12, 2019. Hydrogen was aspirated twice a day, once in the morning and once in the afternoon, for a total of 2 to 7.5 hours (an average of 3.3 hours a day), and as symptoms, pain, disordered sleep, decreased appetite, physical fatigue, mental fatigue, nervous fatigue, burning sensation on the back and foot spasticity were evaluated on Face Pain Scale (FPS; scale: 0 to 5) for about 7 months.
The FAS scales in FIGS. 1 to 5 indicate how the state changed after inhalation as compared to the state before inhalation. […] In FIGS. 1 to 5, the number of scores (e.g. 0 to 3) was counted for each of the periods, and the ratio (%) of the scores in each item was calculated. In the diagrams, the numbers shown outside the table represent the total numbers of respective scores.
Further, on May 13, 2019, the patient started inhalation of hydrogen using hydrogen gas inhalation equipment for professional use (hydrogen concentration: 6 to 7.5%, hydrogen gas production rate: 1,120 mL/min, MiZ Company Limited) instead of the hydrogen inhalation equipment MHG-2000a Type.
FIGS. 1 to 5 show the results of counting over a period from Oct. 4, 2018 to Feb. 14, 2019.
The patient recorded the FAS scores as well as their feeling before and after inhalation on paper record forms as will be described below.

| SMILES | superoxide eliminating action [1] | nerve cells of the spinal cord [2] | oxidative stress [2] | concentration of hydrogen dissolved in water [3] | FAS “4” and FAS “5” scores ([4]; Oct. 4, 2018 to Feb. 14, 2019, all items, hydrogen 6 to 7.5%, 140 mL/min) | improvement in pain, sleep, appetite, physical fatigue, mental fatigue and nervous fatigue (Face Pain Scale scores) ([4]; Oct. 4 to Oct. 31, 2018, inhalation, hydrogen 6 to 7.5%, 140 mL/min, average 3.3 hours a day, FAS 0 and 1 scores recorded) | improvement in sensation on the back and improvement in foot spasticity (Face Pain Scale scores) ([4]; Oct. 4 to Oct. 31, 2018, inhalation, hydrogen 6 to 7.5%, 140 mL/min, FAS 2 and 3 scores, occasionally 1) | Face Pain Scale scores, all items, before against after inhalation ([4]; from May 13, 2019, equipment for professional use, hydrogen 6 to 7.5%, 1,120 mL/min) | ratio of FAS “1” scores ([4]; in and after November 2018, against inhalation time, hydrogen 6 to 7.5%, 140 mL/min) | FAS score recorded in any of the items ([4]; on and after Dec. 1, 2018, continuous inhalation, hydrogen 6 to 7.5%, 140 mL/min, scale 0 to 5) | body temperature and sweating reported by the patient ([4]; record May 13, 2019, equipment 1,120 mL/min, hydrogen 6 to 7.5%) | patient's recorded feeling (spasticity, peripheral nerve, metabolism, flow of blood, induction of sleep) ([4]; record May 13, 2019, equipment 1,120 mL/min, hydrogen 6 to 7.5%, compared with before) |
| --- | --- | --- | --- | --- | --- | --- | --- | --- | --- | --- | --- | --- |
| [2H][2H] [D2, deuterium] | higher than that of H2 |  |  |  |  |  |  |  |  |  |  |  |
| [HH] [hydrogen gas, molecular hydrogen] |  | the nerve cells of the spinal cord were protected | oxidative stress was suppressed | about 1.6 ppm | not recorded at all | good improvement tendency | the improvement tendency was unknown or became worse | improvement occurred in all the items | tended to increase as the inhalation time increased | 3 | the body temperature rises, and thus sweating cannot be stopped | a more potent effect is exhibited |

Source: patent US20200384013A1, “COMPOSITION FOR IMPROVEMENT OF SYMPTOMS OF SPINAL CORD INJURY” (MiZ Company Limited, priority 2019, published 2020)
